Results: patent publication US12161650B2, “Pharmaceutical compositions comprising a ryanodine receptor modulator and uses thereof” (priority 2021, dated 2024)
Where “and” joins values, the source holds several entries; their conditions need not be identical. Equal entries are not always repeated. Where two headings read alike, the source gives them in different places.

Assay: Phase 1b study in RYR1-Related Myopathy patients, plasma pharmacokinetics
Format: in vivo, human (RYR1-Related Myopathy patients)
Experimental: A Phase 1b study is performed in RYR1-Related Myopathy (RYR1-RM) affected individuals. Compound I was administered in a gastro-resistant tablet according to Example 3 at daily doses. The formulation comprised 20 mg Compound I (based on the mass of 4-[(7-methoxy-2,3-dihydro-1,4-benzothiazepin-4(5H)yl)methyl]benzoic acid). The first three participants were dosed with 120 mg of Compound I (6×20 mg tablets) daily for approximately 28 days. The second group was dosed with 200 mg of Compound I (10×20 mg tablets daily for approximately 28 days. Bloods for PK assessments were at baseline (Day 0, 24h PK), at the study mid-point (day 14±2 days, trough PK), and at the final study visit (day 28, 24h PK). Pharmacokinetic analysis was performed on plasma samples. PK parameters are set forth below: [table]

[1] = human, plasma, po, 200 mg, 200 mg oral daily for 28 days, three subjects
[2] = human, plasma, po, 200 mg, single oral 200 mg, three subjects
[3] = single oral 120 mg, Day 1, three subjects, Max
[4] = single oral 120 mg, Day 1, three subjects, Median
[5] = single oral 120 mg, Day 1, three subjects, Min
[6] = single oral 120 mg, Day 1, three subjects, arithmetic mean
[7] = single oral 120 mg, Day 1, three subjects, geometric mean

SMILES: COc1ccc2c(c1)CN(Cc1ccc(C(=O)O)cc1)CCS2.O=C(O)/C=C/C(=O)O [Compound I, 4-[(7-methoxy-2,3-dihydro-1,4-benzothiazepin-4(5H)yl)methyl]benzoic acid hemifumarate]
- Cmax (human, plasma, po, 120 mg, single oral 120 mg, Day 1, three subjects, arithmetic mean, read-out: Cmax): 13300 ng/mL
- Tmax (human, plasma, po, 120 mg, single oral 120 mg, Day 1, three subjects, arithmetic mean, read-out: Tmax): 3 h
- half-life (human, plasma, po, 120 mg, single oral 120 mg, Day 1, three subjects, arithmetic mean, read-out: t½ (converted)): 14.1 h
- AUC(0-t) (human, plasma, po, 120 mg, single oral 120 mg, Day 1, three subjects, geometric mean, read-out: AUC0-24): 171 µg·h/mL
- AUC(0-inf) (human, plasma, po, 120 mg, single oral 120 mg, Day 1, three subjects, geometric mean, read-out: AUC0-inf): 257 µg·h/mL
- AUC(0-t) (human, plasma, po, 120 mg, single oral 120 mg, Day 1, three subjects, geometric mean, read-out: AUC0-t): 171 µg·h/mL
- Cmax (human, plasma, po, 120 mg, single oral 120 mg, Day 1, three subjects, geometric mean, read-out: Cmax): ~13100 ng/mL
- Tmax (human, plasma, po, 120 mg, single oral 120 mg, Day 1, three subjects, geometric mean, read-out: Tmax): 3 h
- half-life (human, plasma, po, 120 mg, single oral 120 mg, Day 1, three subjects, geometric mean, read-out: t½ (converted)): 14.1 h
- AUC(0-inf) (human, plasma, po, 120 mg, single oral 120 mg, Day 1, read-out: AUC0-inf, individual values): 212 to 290 µg·h/mL
- AUC(0-t) (human, plasma, po, 120 mg, single oral 120 mg, Day 1, read-out: AUC0-t, individual values): 150 to 190 µg·h/mL
- Cmax (human, plasma, po, 120 mg, single oral 120 mg, Day 1, read-out: Cmax, individual values): 11100 to 16300 ng/mL
- Tmax (human, plasma, po, 120 mg, single oral 120 mg, Day 1, read-out: TMax, all participants): 3 h
- half-life (human, plasma, po, 120 mg, single oral 120 mg, Day 1, read-out: half-life, individual values (converted)): 12.8 h
- concentration at 0 h [1]: 7450 ng/mL
- concentration at 0.5 h [1]: 8190 ng/mL
- concentration at 1 h [1]: 7900 ng/mL
- concentration at 2 hr (human, plasma, po, 200 mg, 200 mg oral daily for 28 days, three subjects, time 2 hr): 8830 ng/mL
- concentration at 3 h [1]: 13500 ng/mL
- concentration at 4 h [1]: 15100 ng/mL
- concentration at 5 h [1]: 17800 ng/mL
- concentration at 6 h [1]: 20000 ng/mL
- concentration at 8 h [1]: 18300 ng/mL
- concentration at 12 h [1]: 15400 ng/mL
- concentration at 24 h [1]: 8550 ng/mL
- Tmax (human, plasma, po, 200 mg, 200 mg oral daily for 28 days, read-out: Tmax, all participants): 5 to 6 h
- concentration at 0 h [2]: 0 ng/mL
- concentration at 0.5 h [2]: 0 ng/mL
- concentration at 1 h [2]: 0 ng/mL
- concentration at 2 h (human, plasma, po, 200 mg, single oral 200 mg, three subjects, time 2 hr): 176 ng/mL
- concentration at 3 h [2]: 1110 ng/mL
- concentration at 4 h [2]: 14300 ng/mL
- concentration at 5 h [2]: 17600 ng/mL
- concentration at 6 h [2]: 15900 ng/mL
- concentration at 8 h [2]: 13400 ng/mL
- concentration at 12 h [2]: 10000 ng/mL
- concentration at 24 h [2]: 5520 ng/mL
- Tmax (human, plasma, po, 200 mg, single oral 200 mg, read-out: TMax, all participants): 5 to 6 h
- half-life, individual values (single oral 120 mg, Day 1): 15.28 h and 14.40 h
- AUC0-24 [3]: 190 µg·h/mL
- AUC % extrap [3]: 36.4%
- AUC(0-inf) [3]: 290 µg·h/mL
- AUC(0-t) [3]: 190 µg·h/mL
- Cmax [3]: 16300 ng/mL
- Kel [3]: 0.0544 h⁻¹
- Tlag [3]: 0.50 h
- t½ [3]: 15.28 h
- AUC % extrap [4]: 34.33%
- Kel [4]: 0.04813 h⁻¹
- Tlag [4]: 0.000 h
- AUC0-24 [5]: 150 µg·h/mL
- AUC % extrap [5]: 29.4%
- AUC(0-inf) [5]: 212 µg·h/mL
- AUC(0-t) [5]: 150 µg·h/mL
- Cmax [5]: 11100 ng/mL
- Kel [5]: 0.0454 h⁻¹
- Tlag [5]: 0.00 h
- t½ [5]: 12.75 h
- AUC % extrap [6]: 33.36%
- Kel [6]: 0.04929 h⁻¹
- Tlag [6]: 0.167 h
- t½ [6]: 14.142 h
- AUC % extrap [7]: 33.23%
- AUC(0-inf) [7]: 256.6 µg·h/mL
- AUC(0-t) [7]: 170.8 µg·h/mL
- Kel [7]: 0.04915 h⁻¹
